Data reported in patent publication US20220313698A1, “MODULATORS OF CYSTIC FIBROSIS TRANSMEMBRANE CONDUCTANCE REGULATOR” (Vertex Pharmaceuticals Incorporated, priority 2019, published 2022).

Molecular target: CFTR-mediated chloride transport (Homo sapiens, UniProt P13569)
Experiment: Corrector Assay A - membrane potential dye assay (enteroid cells)
Conditions: for Corrector Assay A % activity: % of chloride transport of triple combination control (1 μM (14S)-dispiro macrocycle + 3 μM tezacaftor + 300 nM ivacaftor); for EC50: read-out: Corrector Assay A EC50, human intestinal enteroid cells, 18-24 h incubation, acute 10 μM forskolin + 300 nM ivacaftor

CC(C)(C)c1ccc2c(n1)N1C[C@@H](CCC(CCCC(=O)NCc3ccccc3)Nc3cccc(n3)S(=O)(=O)NC2=O)CC1(C)C (stereo partly drawn) [Compound 15, N-benzyl-4-[(14S)-8-tert-butyl-12,12-dimethyl-2,2,4-trioxo-2λ^6-thia-3,9,11,18,23-pentaazatetracyclo[17.3.1.111,14.05,10]tetracosa-1(23),5(10),6,8,19,21-hexaen-17-yl]butanamide]
Corrector Assay A % activity: +++ (+++ is >60%) | EC50: < 1 µM

CC(C)(C)NC(=O)CCCC1CC[C@@H]2CN(c3nc(C(C)(C)C)ccc3C(=O)NS(=O)(=O)c3cccc(n3)N1)C(C)(C)C2 (stereo partly drawn) [Compound 16, N-tert-butyl-4-[(14S)-8-tert-butyl-12,12-dimethyl-2,2,4-trioxo-2λ^6-thia-3,9,11,18,23-pentaazatetracyclo[17.3.1.111,14.05,10]tetracosa-1(23),5(10),6,8,19,21-hexaen-17-yl]butanamide]
Corrector Assay A % activity: +++ (+++ is >60%) | EC50: < 1 µM

CC(C)N(C(=O)CCCC1CC[C@@H]2CN(c3nc(C(C)(C)C)ccc3C(=O)NS(=O)(=O)c3cccc(n3)N1)C(C)(C)C2)C(C)C (stereo partly drawn) [Compound 17, 4-[(14S)-8-tert-butyl-12,12-dimethyl-2,2,4-trioxo-2λ^6-thia-3,9,11,18,23-pentaazatetracyclo[17.3.1.111,14.05,10]tetracosa-1(23),5(10),6,8,19,21-hexaen-17-yl]-N,N-bis(propan-2-yl)butanamide]
Corrector Assay A % activity: +++ (+++ is >60%) | EC50: < 1 µM

CN(C)C(=O)CCCC1CC[C@@H]2CN(c3nc(C(C)(C)C)ccc3C(=O)NS(=O)(=O)c3cccc(n3)N1)C(C)(C)C2 (stereo partly drawn) [Compound 18, 4-[(14S)-8-tert-Butyl-12,12-dimethyl-2,2,4-trioxo-2λ^6-thia-3,9,11,18,23-pentaazatetracyclo[17.3.1.111,14.05,10]tetracosa-1(23),5(10),6,8,19,21-hexaen-17-yl]-N,N-dimethylbutanamide]
Corrector Assay A % activity: +++ (+++ is >60%) | EC50: < 1 µM

CC(C)(C)c1ccc2c(n1)N1C[C@@H](CCC(CCCC(=O)O)Nc3cccc(n3)S(=O)(=O)NC2=O)CC1(C)C (stereo partly drawn) [Compound 19, 4-[(14S)-8-tert-Butyl-12,12-dimethyl-2,2,4-trioxo-2λ^6-thia-3,9,11,18,23-pentaazatetracyclo[17.3.1.111,14.05,10]tetracosa-1(23),5(10),6,8,19,21-hexaen-17-yl]butanoic acid]
Corrector Assay A % activity: +++ (+++ is >60%) | EC50: 1 to 3 µM

CC(C)(C)c1ccc2c(n1)N1C[C@@H](CCC(c3ccc(C4CC(F)(F)C4)cn3)Nc3cccc(n3)S(=O)(=O)NC2=O)CC1(C)C (stereo partly drawn) [Compound 21]
Corrector Assay A % activity: +++ (+++ is >60%) | EC50: < 1 µM

CC(C)(C)c1ccc2c(n1)N1C[C@@H](CCC(c3ccc(C4COC4)cn3)Nc3cccc(n3)S(=O)(=O)NC2=O)CC1(C)C (stereo partly drawn) [Compound 29, (14S)-8-tert-butyl-12,12-dimethyl-17-[5-(oxetan-3-yl)pyridin-2-yl]-2λ^6-thia-3,9,11,18,23-pentaazatetracyclo[17.3.1.111,14.05,10]tetracosa-1(23),5(10),6,8,19,21-hexaene-2,2,4-trione]
Corrector Assay A % activity: +++ (+++ is >60%) | EC50: < 1 µM

CC(C)(C)c1ccc2c(n1)N1C[C@@H](CC[C@H](c3cccc(CNCC(F)(F)F)n3)Nc3cccc(n3)S(=O)(=O)NC2=O)CC1(C)C [Compound 50, (14S,17R)-8-tert-Butyl-12,12-dimethyl-17-(6-{[(2,2,2-trifluoroethyl)amino]methyl}pyridin-2-yl)-2λ^6-thia-3,9,11,18,23-pentaazatetracyclo[17.3.1.111,14.05,10]tetracosa-1(22),5,7,9,19(23),20-hexaene-2,2,4-trione]
Corrector Assay A % activity: +++ (+++ is >60%) | EC50: 1 to 3 µM

Cn1nccc1-c1ccc(C2CC[C@@H]3CN(c4nc(C(C)(C)C)ccc4C(=O)NS(=O)(=O)c4cccc(n4)N2)C(C)(C)C3)nc1 (stereo partly drawn) [Compound 57]
Corrector Assay A % activity: ++ (++ is 30-60%) | EC50: < 1 µM

Cn1nccc1-c1ccc(C2CC[C@@H]3CN(c4nc(C(C)(C)C)ccc4C(=O)NS(=O)(=O)c4cccc(n4)N2)C(C)(C)C3)nc1 (stereo partly drawn) [Compound 58]
Corrector Assay A % activity: +++ (+++ is >60%) | EC50: < 1 µM

Cn1ccc(-c2ccc(C3CC[C@@H]4CN(c5nc(C(C)(C)C)ccc5C(=O)NS(=O)(=O)c5cccc(n5)N3)C(C)(C)C4)nc2)n1 (stereo partly drawn) [Compound 59]
Corrector Assay A % activity: + (+ is <30%) | EC50: < 1 µM

Cn1ccc(-c2ccc(C3CC[C@@H]4CN(c5nc(C(C)(C)C)ccc5C(=O)NS(=O)(=O)c5cccc(n5)N3)C(C)(C)C4)nc2)n1 (stereo partly drawn) [Compound 60]
Corrector Assay A % activity: +++ (+++ is >60%) | EC50: < 1 µM

CC(C)(C)c1ccc2c(n1)N1C[C@@H](CCC(c3ccc(N)cn3)Nc3cccc(n3)S(=O)(=O)NC2=O)CC1(C)C (stereo partly drawn) [Compound 63]
Corrector Assay A % activity: +++ (+++ is >60%) | EC50: < 1 µM

CC(C)(C)c1ccc2c(n1)N1C[C@@H](CCC(c3ccc(N)cn3)Nc3cccc(n3)S(=O)(=O)NC2=O)CC1(C)C (stereo partly drawn) [Compound 64, (14S)-17-(5-aminopyridin-2-yl)-8-tert-butyl-12,12-dimethyl-2λ^6-thia-3,9,11,18,23-pentaazatetracyclo[17.3.1.111,14.05,10]tetracosa-1(23),5(10),6,8,19,21-hexaene-2,2,4-trione]
Corrector Assay A % activity: ++ (++ is 30-60%) | EC50: < 1 µM

CC(C)(C)c1ccc2c(n1)N1C[C@@H](CC[C@H](c3cccc(-c4cn[nH]c4)n3)Nc3cccc(n3)S(=O)(=O)NC2=O)CC1(C)C [Compound 67]
Corrector Assay A % activity: +++ (+++ is >60%) | EC50: < 1 µM

CC(C)(C)c1ccc2c(n1)N1C[C@@H](CC[C@H](c3cccc(C(N)=O)n3)Nc3cccc(n3)S(=O)(=O)NC2=O)CC1(C)C [Compound 70, 6-[(14S,17R)-8-tert-butyl-12,12-dimethyl-2,2,4-trioxo-2λ^6-thia-3,9,11,18,23-pentaazatetracyclo[17.3.1.111,14.05,10]tetracosa-1(22),5,7,9,19(23),20-hexaen-17-yl]pyridine-2-carboxamide]
Corrector Assay A % activity: ++ (++ is 30-60%) | EC50: < 1 µM

CC(=O)NCc1ccc(C2CC[C@@H]3CN(c4nc(C(C)(C)C)ccc4C(=O)NS(=O)(=O)c4cccc(n4)N2)C(C)(C)C3)nc1 (stereo partly drawn) [Compound 71]
Corrector Assay A % activity: ++ (++ is 30-60%) | EC50: < 1 µM

CC(=O)NCc1ccc(C2CC[C@@H]3CN(c4nc(C(C)(C)C)ccc4C(=O)NS(=O)(=O)c4cccc(n4)N2)C(C)(C)C3)nc1 (stereo partly drawn) [Compound 72, N-({6-[(14S)-8-tert-Butyl-12,12-dimethyl-2,2,4-trioxo-2λ^6-thia-3,9,11,18,23-pentaazatetracyclo[17.3.1.111,14.05,10]tetracosa-1(23),5(10),6,8,19,21-hexaen-17-yl]pyridin-3-yl}methyl)acetamide]
Corrector Assay A % activity: ++ (++ is 30-60%) | EC50: < 1 µM

CC(C)(C)c1ccc2c(n1)N1C[C@@H](CC[C@H](c3cccc(-c4ccn[nH]4)n3)Nc3cccc(n3)S(=O)(=O)NC2=O)CC1(C)C [Compound 77]
Corrector Assay A % activity: ++ (++ is 30-60%) | EC50: < 1 µM

CC(C)(C)c1ccc2c(n1)N1C[C@@H](CCC(c3ccc(CO)cn3)Nc3cccc(n3)S(=O)(=O)NC2=O)CC1(C)C (stereo partly drawn) [Compound 78]
Corrector Assay A % activity: +++ (+++ is >60%) | EC50: < 1 µM

CC(C)(C)c1ccc2c(n1)N1C[C@@H](CCC(c3ccc(CO)cn3)Nc3cccc(n3)S(=O)(=O)NC2=O)CC1(C)C (stereo partly drawn) [Compound 79, (14S)-8-tert-butyl-17-[5-(hydroxymethyl)pyridin-2-yl]-12,12-dimethyl-2λ^6-thia-3,9,11,18,23-pentaazatetracyclo[17.3.1.111,14.05,10]tetracosa-1(23),5(10),6,8,19,21-hexaene-2,2,4-trione]
Corrector Assay A % activity: +++ (+++ is >60%) | EC50: < 1 µM

COC(=O)NCc1ccc(C2CC[C@@H]3CN(c4nc(C(C)(C)C)ccc4C(=O)NS(=O)(=O)c4cccc(n4)N2)C(C)(C)C3)nc1 (stereo partly drawn) [Compound 88]
Corrector Assay A % activity: +++ (+++ is >60%) | EC50: < 1 µM

COC(=O)NCc1ccc(C2CC[C@@H]3CN(c4nc(C(C)(C)C)ccc4C(=O)NS(=O)(=O)c4cccc(n4)N2)C(C)(C)C3)nc1 (stereo partly drawn) [Compound 89, Methyl N-({6-[(14S)-8-tert-butyl-12,12-dimethyl-2,2,4-trioxo-2λ^6-thia-3,9,11,18,23-pentaazatetracyclo[17.3.1.111,14.05,10]tetracosa-1(23),5(10),6,8,19,21-hexaen-17-yl]pyridin-3-yl}methyl)carbamate]
Corrector Assay A % activity: ++ (++ is 30-60%) | EC50: < 1 µM

COC(=O)CCc1ccc(C2CC[C@@H]3CN(c4nc(C(C)(C)C)ccc4C(=O)NS(=O)(=O)c4cccc(n4)N2)C(C)(C)C3)nc1 (stereo partly drawn) [Compound 90]
Corrector Assay A % activity: ++ (++ is 30-60%) | EC50: < 1 µM

COC(=O)CCc1ccc(C2CC[C@@H]3CN(c4nc(C(C)(C)C)ccc4C(=O)NS(=O)(=O)c4cccc(n4)N2)C(C)(C)C3)nc1 (stereo partly drawn) [Compound 91, methyl 3-{6-[(14S)-8-tert-butyl-12,12-dimethyl-2,2,4-trioxo-2λ^6-thia-3,9,11,18,23-pentaazatetracyclo[17.3.1.111,14.05,10]tetracosa-1(23),5(10),6,8,19,21-hexaen-17-yl]pyridin-3-yl}propanoate]
Corrector Assay A % activity: ++ (++ is 30-60%) | EC50: > 3 µM

COC(=O)N1CCC(c2ccnc(C3CC[C@@H]4CN(c5nc(C(C)(C)C)ccc5C(=O)NS(=O)(=O)c5cccc(n5)N3)C(C)(C)C4)c2)CC1 (stereo partly drawn) [Compound 96, methyl 4-{2-[(14S)-8-tert-butyl-12,12-dimethyl-2,2,4-trioxo-2λ^6-thia-3,9,11,18,23-pentaazatetracyclo[17.3.1.111,14.05,10]tetracosa-1(23),5(10),6,8,19,21-hexaen-17-yl]pyridin-4-yl}piperidine-1-carboxylate]
Corrector Assay A % activity: +++ (+++ is >60%) | EC50: < 1 µM

CC(C)(C)c1ccc2c(n1)N1C[C@@H](CCC(c3ccc(CCC(=O)O)cn3)Nc3cccc(n3)S(=O)(=O)NC2=O)CC1(C)C (stereo partly drawn) [Compound 97]
Corrector Assay A % activity: ++ (++ is 30-60%) | EC50: 1 to 3 µM
